target: b-Raf(V600E) (Homo sapiens (Human), UniProt P15056, V600E); assay: Raf/Mek Amplified Luminescence Proximity Homogeneous Assay (Alpha Screen); assay type: biochemical; settings: b-Raf(V600E) approximately 4 pM; biotinylated Mek, kinase dead approximately 10 nM; ATP 10 μM; pre-incubation 60 minutes; reaction 3 hours at room temperature; read-out: mut-B-RAF IC50
Procedure: Raf/Mek Amplified Luminescence Proximity Homogeneous Assay
Assay buffer: 50 mM Tris, pH 7.5, 15 mM MgCl2, 0.01% Bovine Serum Albumin (BSA), 1 mM dithiothreitol (DTT) Stop buffer: 60 mM ethylenediaminetetraacetic acid (EDTA), 0.01% Tween® 20 Bead buffer: 50 mM Tris, pH 7.5, 0.01% Tween® 20 […]
biotinylated Mek, kinase dead
Alpha Screen detection kit (available from PerkinElmer™, #6760617R)
Anti phospho-MEK1/2 (available from Cell Signaling Technology, Inc. #9121) 384 well assay plates (White Greiner® plates, #781207) […]
biotinylated Mek, Kinase dead approximately 10 nM
Pre-incubation time with compounds 60 minutes at room temperature
Reaction time 1 or 3 hours at room temperature
Raf and biotinylated Mek, kinase dead, were combined at 2× final concentrations in assay buffer (50 mM Tris, pH 7.5, 15 mM MgCl2, 0.01% BSA and 1 mM DTT) and dispensed 10 μl per well in assay plates (Greiner white 384 well assay plates #781207) containing 0.5 μl of 40× of a raf kinase inhibitor test compound diluted in 100% DMSO. The plate was incubated for 60 minutes at room temperature.
The Raf kinase activity reaction was started by the addition of 10 μL per well of 2×ATP diluted in assay buffer. […] Phosphorylated product was measured using a rabbit anti-p-MEK (Cell Signaling, #9121) antibody and the Alpha Screen IgG (ProteinA) detection Kit (PerkinElmer #6760617R), by the addition of 30 μL to the well of a mixture of the antibody (1:2000 dilution) and detection beads (1:2000 dilution of both beads) in bead buffer (50 mM Tris, pH 7.5, 0.01% Tween20). The additions were carried out under dark conditions to protect the detection beads from light. A lid was placed on top of the plate and incubated for 1 hour at room temperature, then the luminescence was read on a PerkinElmer Envision instrument. The concentration of each compound for 50% inhibition (IC50) was calculated by non-linear regression using XL Fit data analysis software.

Sequence of b-Raf(V600E) (P15056 whole entry V600E): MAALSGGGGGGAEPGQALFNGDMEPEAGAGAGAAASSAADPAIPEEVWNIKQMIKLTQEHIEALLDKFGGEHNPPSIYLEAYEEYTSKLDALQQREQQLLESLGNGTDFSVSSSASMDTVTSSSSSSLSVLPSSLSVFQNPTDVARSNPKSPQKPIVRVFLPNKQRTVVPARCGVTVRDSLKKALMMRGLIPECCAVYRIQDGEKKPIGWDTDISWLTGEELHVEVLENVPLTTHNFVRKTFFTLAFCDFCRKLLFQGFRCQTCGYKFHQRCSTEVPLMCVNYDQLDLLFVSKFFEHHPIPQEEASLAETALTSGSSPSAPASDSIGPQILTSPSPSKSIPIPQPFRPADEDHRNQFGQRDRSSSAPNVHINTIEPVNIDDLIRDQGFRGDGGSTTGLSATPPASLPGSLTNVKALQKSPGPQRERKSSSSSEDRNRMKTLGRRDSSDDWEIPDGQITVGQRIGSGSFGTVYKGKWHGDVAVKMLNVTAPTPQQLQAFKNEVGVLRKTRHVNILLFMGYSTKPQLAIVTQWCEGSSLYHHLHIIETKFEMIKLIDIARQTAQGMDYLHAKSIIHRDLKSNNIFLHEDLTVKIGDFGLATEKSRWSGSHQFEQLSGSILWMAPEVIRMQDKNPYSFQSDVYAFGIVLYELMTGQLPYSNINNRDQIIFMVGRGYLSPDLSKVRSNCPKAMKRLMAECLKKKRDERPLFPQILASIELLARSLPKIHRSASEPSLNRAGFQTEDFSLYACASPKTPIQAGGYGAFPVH

IC50 [nM] | Structure (SMILES)
0.29 | Cc1cc(NS(C)(=O)=O)c(Cl)c(-c2nc(C3(C)CC3)[nH]c2-c2ccnc(NCCC#N)n2)c1 [Example 1AZ, N-(2-Chloro-3-(5-(2-(2-cyanoethylamino)pyrimidin-4-yl)-2-(1-methylcyclopropyl)-1H-imidazol-4-yl)-5-methylphenyl)methanesulfonamide]
0.2 | COC(=O)N[C@@H](C)CNc1nccc(-c2[nH]c(C3CC3)nc2-c2cc(C)cc(NS(C)(=O)=O)c2F)n1 [Example 1B, (S)-methyl 1-(4-(2-cyclopropyl-4-(2-fluoro-5-methyl-3-(methylsulfonamido)phenyl)-1H-imidazol-5-yl)pyrimidin-2-ylamino)propan-2-ylcarbamate]
0.37 | Cc1cc(NS(C)(=O)=O)c(F)c(-c2nc(C3(C)CC3)[nH]c2-c2ccnc(NCCC#N)n2)c1 [Example 1BA, N-(3-(5-(2-(2-Cyanoethylamino)pyrimidin-4-yl)-2-(1-methylcyclopropyl)-1H-imidazol-4-yl)-2-fluoro-5-methylphenyl)methanesulfonamide]
0.11 | CC1(c2nc(-c3cc(Cl)cc(NS(C)(=O)=O)c3F)c(-c3ccnc(NCCC#N)n3)[nH]2)CC1 [Example 1BB, N-(5-Chloro-3-(5-(2-(2-cyanoethylamino)pyrimidin-4-yl)-2-(1-methylcyclopropyl)-1H-imidazol-4-yl)-2-fluorophenyl)methanesulfonamide]
1 | CC1(c2nc(-c3cccc(NS(C)(=O)=O)c3Cl)c(-c3ccnc(NCCC#N)n3)[nH]2)CC1 [Example 1BC, N-(2-Chloro-3-(5-(2-(2-cyanoethylamino)pyrimidin-4-yl)-2-(1-methylcyclopropyl)-1H-imidazol-4-yl)phenyl)methanesulfonamide]
3 | CC(C)(C)c1nc(-c2cc(Cl)cc(NS(C)(=O)=O)c2F)c(-c2ccnc(N)n2)[nH]1 [Example 1BD, N-(3-(5-(2-Aminopyrimidin-4-yl)-2-tert-butyl-1H-imidazol-4-yl)-5-chloro-2-fluorophenyl)methanesulfonamide]
0.13 | CC(C)(C)c1nc(-c2cc(Cl)cc(NS(=O)(=O)c3c(F)cccc3F)c2F)c(-c2ccnc(N)n2)[nH]1 [Example 1BE, N-(3-(5-(2-Aminopyrimidin-4-yl)-2-tert-butyl-1H-imidazol-4-yl)-5-chloro-2-fluorophenyl)-2,6-difluorobenzenesulfonamide]
0.1 | Nc1nccc(-c2[nH]c(C3CC3)nc2-c2cc(Cl)cc(NS(=O)(=O)c3c(F)cccc3F)c2F)n1 [Example 1BF, N-(3-(5-(2-Aminopyrimidin-4-yl)-2-cyclopropyl-1H-imidazol-4-yl)-5-chloro-2-fluorophenyl)-2,6-difluorobenzenesulfonamide]
4 | CS(=O)(=O)Nc1cc(Cl)cc(-c2nc(C3CC3)[nH]c2-c2ccnc(N)n2)c1F [Example 1BG, N-(3-(5-(2-Aminopyrimidin-4-yl)-2-cyclopropyl-1H-imidazol-4-yl)-5-chloro-2-fluorophenyl)methanesulfonamide]
0.08 | CCCS(=O)(=O)Nc1cc(Cl)cc(-c2nc(C(C)(C)C)[nH]c2-c2ccnc(N)n2)c1F [Example 1BH, N-(3-(5-(2-Aminopyrimidin-4-yl)-2-tert-butyl-1H-imidazol-4-yl)-5-chloro-2-fluorophenyl)propane-1-sulfonamide]
0.1 | COC(=O)N[C@@H](C)CNc1nccc(-c2[nH]c(C3CC3)nc2-c2cc(F)cc(NS(=O)(=O)c3c(F)cccc3F)c2Cl)n1 [Example 1BI, (S)-Methyl 1-(4-(4-(2-chloro-3-(2,6-difluorophenylsulfonamido)-5-fluorophenyl)-2-cyclopropyl-1H-imidazol-5-yl)pyrimidin-2-ylamino)propan-2-ylcarbamate]
5 | CC(C)(C)c1nc(-c2cc(F)cc(NS(C)(=O)=O)c2Cl)c(-c2ccnc(N)n2)[nH]1 [Example 1BJ, N-(3-(5-(2-Aminopyrimidin-4-yl)-2-tert-butyl-1H-imidazol-4-yl)-2-chloro-5-fluorophenyl)methanesulfonamide]
0.22 | CC(C)(C)c1nc(-c2cccc(NS(=O)(=O)c3c(F)cccc3F)c2Cl)c(-c2ccnc(N)n2)[nH]1 [Example 1BK, N-(3-(5-(2-Aminopyrimidin-4-yl)-2-tert-butyl-1H-imidazol-4-yl)-2-chlorophenyl)-2,6-difluorobenzenesulfonamide]
55 | CC(C)(C)c1nc(-c2cccc(NS(C)(=O)=O)c2Cl)c(-c2ccnc(N)n2)[nH]1 [Example 1BL, N-(3-(5-(2-Aminopyrimidin-4-yl)-2-tert-butyl-1H-imidazol-4-yl)-2-chlorophenyl)methanesulfonamide]
0.37 | COC(=O)N[C@@H](C)CNc1nccc(-c2[nH]c(C3CC3)nc2-c2cc(Cl)cc(NS(=O)(=O)c3cc(F)cc(F)c3)c2F)n1 [Example 1BM, (S)-Methyl 1-(4-(4-(5-chloro-3-(3,5-difluorophenylsulfonamido)-2-fluorophenyl)-2-cyclopropyl-1H-imidazol-5-yl)pyrimidin-2-ylamino)propan-2-ylcarbamate]
7 | COC(=O)N[C@@H](C)CNc1nccc(-c2[nH]c(C3CC3)nc2-c2cc(Cl)cc(NS(=O)(=O)c3ccc(C(F)(F)F)cc3)c2F)n1 [Example 1BN, (S)-Methyl 1-(4-(4-(5-chloro-2-fluoro-3-(4-(trifluoromethyl)phenylsulfonamido)phenyl)-2-cyclopropyl-1H-imidazol-5-yl)pyrimidin-2-ylamino)propan-2-ylcarbamate]
0.25 | COC(=O)N[C@@H](C)CNc1nccc(-c2[nH]c(C3CC3)nc2-c2cc(C)cc(NS(=O)(=O)CC(F)(F)F)c2F)n1 [Example 1BO, (S)-Methyl 1-(4-(2-cyclopropyl-4-(2-fluoro-5-methyl-3-(2,2,2-trifluoroethylsulfonamido)phenyl)-1H-imidazol-5-yl)pyrimidin-2-ylamino)propan-2-ylcarbamate]
0.26 | CC(C)(C)c1nc(-c2cc(F)cc(NS(=O)(=O)c3c(F)cccc3F)c2Cl)c(-c2ccnc(N)n2)[nH]1 [Example 1BP, N-(3-(5-(2-Aminopyrimidin-4-yl)-2-tert-butyl-1H-imidazol-4-yl)-2-chloro-5-fluorophenyl)-2,6-difluorobenzenesulfonamide]
12 | CS(=O)(=O)Nc1cc(F)cc(-c2nc(C3CC3)[nH]c2-c2ccnc(N)n2)c1Cl [Example 1BQ, N-(3-(5-(2-Aminopyrimidin-4-yl)-2-cyclopropyl-1H-imidazol-4-yl)-2-chloro-5-fluorophenyl)methanesulfonamide]
0.19 | Nc1nccc(-c2[nH]c(C3CC3)nc2-c2cc(F)cc(NS(=O)(=O)c3c(F)cccc3F)c2Cl)n1 [Example 1BR, N-(3-(5-(2-Aminopyrimidin-4-yl)-2-cyclopropyl-1H-imidazol-4-yl)-2-chloro-5-fluorophenyl)-2,6-difluorobenzenesulfonamide]
0.2 | CCCS(=O)(=O)Nc1cc(F)cc(-c2nc(C3CC3)[nH]c2-c2ccnc(N)n2)c1Cl [Example 1BS, N-(3-(5-(2-Aminopyrimidin-4-yl)-2-cyclopropyl-1H-imidazol-4-yl)-2-chloro-5-fluorophenyl)propane-1-sulfonamide]
0.23 | COC(=O)N[C@@H](C)CNc1nccc(-c2[nH]c(C3CCC3)nc2-c2cc(Cl)cc(NS(C)(=O)=O)c2F)n1 [Example 1BT, (S)-Methyl 1-(4-(4-(5-chloro-2-fluoro-3-(methylsulfonamido)phenyl)-2-cyclobutyl-1H-imidazol-5-yl)pyrimidin-2-ylamino)propan-2-ylcarbamate]
1 | COC(=O)N[C@@H](C)CNc1nccc(-c2[nH]c(C3CCC3)nc2-c2cc(F)cc(NS(C)(=O)=O)c2Cl)n1 [Example 1BU, (S)-Methyl 1-(4-(4-(2-chloro-5-fluoro-3-(methylsulfonamido)phenyl)-2-cyclobutyl-1H-imidazol-5-yl)pyrimidin-2-ylamino)propan-2-ylcarbamate]
1 | CNc1nccc(-c2[nH]c(C3CC3)nc2-c2cc(F)cc(NS(=O)(=O)c3c(F)cccc3F)c2Cl)n1 [Example 1BV, N-(2-Chloro-3-(2-cyclopropyl-5-(2-(methylamino)pyrimidin-4-yl)-1H-imidazol-4-yl)-5-fluorophenyl)-2,6-difluorobenzenesulfonamide]
31 | CNc1nccc(-c2[nH]c(C3CC3)nc2-c2cc(F)cc(NS(C)(=O)=O)c2Cl)n1 [Example 1BW, N-(2-Chloro-3-(2-cyclopropyl-5-(2-(methylamino)pyrimidin-4-yl)-1H-imidazol-4-yl)-5-fluorophenyl)methanesulfonamide]
0.11 | CCCS(=O)(=O)Nc1cc(F)cc(-c2nc(C3CC3)[nH]c2-c2ccnc(NC)n2)c1Cl [Example 1BX, N-(2-Chloro-3-(2-cyclopropyl-5-(2-(methylamino)pyrimidin-4-yl)-1H-imidazol-4-yl)-5-fluorophenyl)propane-1-sulfonamide]

Source: patent US8563553B2, “Compounds and compositions as protein kinase inhibitors” (Novartis AG, priority 2009, dated 2013)
